ChEMBL document CHEMBL1140477 (Bioorg Med Chem, 2007)

target: T1, 3-hydroxy-3-methylglutaryl-coenzyme A reductase (Rattus norvegicus, UniProt P51639); assay: Inhibition of Holtzman-Sprague-Dawley rat liver HMG CoA reductase after 30 mins
T1 sequence (P51639 whole entry): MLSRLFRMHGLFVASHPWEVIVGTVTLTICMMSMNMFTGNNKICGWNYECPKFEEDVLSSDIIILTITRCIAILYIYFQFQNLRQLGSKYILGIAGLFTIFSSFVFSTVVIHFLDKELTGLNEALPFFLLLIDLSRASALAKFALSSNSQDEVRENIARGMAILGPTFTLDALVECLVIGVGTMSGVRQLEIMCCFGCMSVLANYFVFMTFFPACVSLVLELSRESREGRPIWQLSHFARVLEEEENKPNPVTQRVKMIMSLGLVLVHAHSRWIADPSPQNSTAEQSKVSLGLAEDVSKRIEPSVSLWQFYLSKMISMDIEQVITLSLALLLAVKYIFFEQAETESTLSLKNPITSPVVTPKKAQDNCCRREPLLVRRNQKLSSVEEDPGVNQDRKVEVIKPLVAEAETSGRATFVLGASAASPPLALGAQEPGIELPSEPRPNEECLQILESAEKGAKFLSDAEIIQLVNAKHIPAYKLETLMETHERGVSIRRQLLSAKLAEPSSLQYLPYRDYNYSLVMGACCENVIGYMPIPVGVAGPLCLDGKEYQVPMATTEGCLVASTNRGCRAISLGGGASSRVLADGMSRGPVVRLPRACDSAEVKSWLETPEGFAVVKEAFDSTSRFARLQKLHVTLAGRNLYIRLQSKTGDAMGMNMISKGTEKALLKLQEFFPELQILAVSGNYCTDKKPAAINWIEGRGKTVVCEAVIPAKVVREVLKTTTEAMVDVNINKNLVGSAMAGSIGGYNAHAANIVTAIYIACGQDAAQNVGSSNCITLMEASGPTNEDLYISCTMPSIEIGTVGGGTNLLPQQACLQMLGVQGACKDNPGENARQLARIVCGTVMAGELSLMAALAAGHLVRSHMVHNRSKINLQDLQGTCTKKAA

| Structure (SMILES) | IC50 |
| --- | --- |
| O=C1C[C@H](O)C[C@@H](/C=C/c2cnc3cc(Sc4ccccc4)c(Sc4ccccc4)cc3c2Sc2ccccc2)O1 | 32.5 µM |
| COc1cccc(Sc2cc3ncc(/C=C/[C@@H]4C[C@@H](O)CC(=O)O4)c(Sc4cccc(OC)c4)c3cc2Sc2cccc(OC)c2)c1 | 15.4 µM |
| CC(C)c1ccc(Sc2cc3c(Sc4ccc(C(C)C)cc4)c(/C=C/[C@@H]4C[C@@H](O)CC(=O)O4)cnc3c(Sc3ccc(C(C)C)cc3)c2Sc2ccc(C(C)C)cc2)cc1 | 4.35 µM |
| CC(C)c1ccc(Sc2c(/C=C/[C@@H]3C[C@@H](O)CC(=O)O3)cnc3ccccc23)cc1 | 12.7 µM |
| CC(C)c1ccc(Sc2ccc3c(Sc4ccc(C(C)C)cc4)c(/C=C/[C@@H]4C[C@@H](O)CC(=O)O4)cnc3c2)cc1 | 15.8 µM |
| COc1cccc(Sc2c(F)cc3c(Sc4cccc(OC)c4)c(/C=C/[C@@H]4C[C@@H](O)CC(=O)O4)cnc3c2F)c1 | 49.7 µM |

Continued by falling IC50, values first:

| IC50 | Structure (SMILES) |
| --- | --- |
| 74.6 µM | COc1cccc(Sc2c(F)cc3c(Sc4cccc(OC)c4)c(/C=C/[C@@H]4C[C@@H](O)CC(=O)O4)cnc3c2Sc2cccc(OC)c2)c1 |
| 38.9 µM | O=C1C[C@H](O)C[C@@H](/C=C/c2cnc3cc(Sc4ccc(F)cc4)c(F)cc3c2Sc2ccc(F)cc2)O1 |
| 22.1 µM | CC(C)c1ccc(Sc2c(/C=C/[C@@H]3C[C@@H](O)CC(=O)O3)cnc3cc(Cl)c(F)cc23)cc1 |
| 18.6 µM | O=C1C[C@H](O)C[C@@H](/C=C/c2cnc3ccccc3c2Sc2ccc(F)cc2)O1 |
| 14.2 µM | CC(C)c1ccc(Sc2cc3ncc(/C=C/[C@@H]4C[C@@H](O)CC(=O)O4)c(Sc4ccc(C(C)C)cc4)c3cc2Sc2ccc(C(C)C)cc2)cc1 |
| 10.7 µM | O=C1C[C@H](O)C[C@@H](/C=C/c2cnc3c(F)c(F)c(F)cc3c2Sc2ccccc2)O1 |
| 10.6 µM | O=C(O)C[C@H](O)C[C@H](O)/C=C/c1c(C2CC2)nc2ccccc2c1-c1ccc(F)cc1 [PITAVASTATIN CALCIUM] |
| 4.41 µM | O=C1C[C@H](O)C[C@@H](/C=C/c2cnc3cc(Sc4ccccc4)c(F)cc3c2Sc2ccccc2)O1 |
